Measurements: patent US20240043473A1, “NOOTROPIC PEPTIDES FOR TREATING LYSOSOMAL STORAGE DISEASES” (Phoenix Nest Inc., priority 2021, published 2024)
“Also recorded” adds a separate entry of the source. No end group written: not given here.

Key:
[1] = Preliminary studies of activity and stability of the acetylated peptide
[2] = tested on: hippocampus CA1 pyramidal cells in hippocampal slices from Hgsnat^Geo and Hgsnat^P311L mice; assay: Evoked synaptic currents (AMPA EPSCs, NMDA EPSCs, paired pulse) by stimulating Schaffer collaterals in hippocampal slices; assay type: cell-based, mouse
Method: Model and Developmental time points: Hippocampal slices from Hgsnat^Geo and Hgsnat^P311L mice; P14-20.
Method: Synaptic currents (composite glutamatergic EPSCs, AMPA EPSCs and NMDA EPSCs) were evoked by stimulating Schaffer collaterals and recordings were conducted from the hippocampus CA1 pyramidal cells in hippocampal slices from Hgsnat^Geo and Hgsnat^P311L mice. Paired pulse stimulation protocol with increasing stimulus intervals was used to identify the locus of deficit.
Acute hippocampal slices were prepared as follows. Briefly, animals were anaesthetized deeply with isoflurane and decapitated. The brain was dissected carefully and transferred rapidly into an ice-cold (0-4° C.) solution containing the following (in mM): 250 sucrose, 2 KCl, 1.25 NaH2PO4, 26 NaHCO3, 7 MgSO4, 0.5 CaCl2 and 10 glucose, pH 7.4. The solution was oxygenated continuously with 95% O2 and 5% CO2, 330-340 mOsm/L. Transverse hippocampal slices (thickness, 300 μm) were cut using a vibratome (VT1000S; Leica Microsystems), transferred to a bath at room temperature (23° C.) with standard ACSF at pH 7.4 containing the following (in mM): 126 NaCl, 3 KCl, 1 NaH2PO^4, 25 NaHCO3, 2 MgSO4, 2 CaCl2), 10 glucose, continuously saturated with 95% 02 and 5% CO2 and allowed to recover for 1 h. During the experiments, slices were transferred to the recording chamber at physiological temperature (30-33° C.) continuously perfused with standard ACSF, as described above, at 2 ml/min. Pyramidal CA1 neurons from the hippocampus were identified visually using a 40× water immersion objective. Whole-cell patch-clamp recordings were obtained from single cells in voltage- or current-clamp mode and only 1 cell per slice was recorded to enable post-hoc identification and immunohistochemical processing. Recording pipettes (4-6 MΩ) were filled with a K-gluconate based solution for voltage-clamp recordings (in mM): 130 K-gluconate, 10 KCl, 5 diNa-phosphocreatine. 10 HEPES, 2.5 MgCl2, 0.5CaCl2,1 EGTA, 3 ATP-Tris, 0.4 GTP-Li, 0.3% biocytin, pH 7.2-7.4, 280-290 mOsm/L.
We further studied evoked glutamatergic EPSCs in CA1 pyramidal neurons at P14-20 by stimulating Schaffer Collateral afferents. […] The effect is aggravated at higher IPI, as both the readily releasable and reserve pools of synaptic vesicles get progressively emptied.

[3] = tested on: iPSC-derived cortical neurons from MPS IIIA and MPS IIIC patients; assay: Synaptic protein markers and BDNF in iPSC-derived cultured cortical neurons (immunocytochemistry); assay type: cell-based, human; details: 10 μM in culture; MPS IIIA and MPS IIIC patient neurons
Text: Generation of iPSC lines MPS III patient fibroblast lines were obtained from the Coriell Institute for Medical Research (NJ, USA), or from the hospitals were the patients were diagnosed/followed with the informed consent of patient's families. The fibroblasts were propagated in Dulbecco's Modified Eagle Medium (DMEM, ThermoFisher) with 10% fetal bovine serum (FBS) and 1% Antibiotic-Antimycotic (15240062, ThermoFisher) and tested for mycoplasma. The cells were further reprogrammed into iPSCs at the CHUSJ iPSC Platform using a non-integrating CytoTune-Sendai viral reprograming kit (A16517, Thermo Fisher Scientific, MA, USA) according to the manufacture's protocol. Two colonies for each iPSC line were used for further proliferation, iPSCs were expanded and maintained on six-well plates coated with Matrigel mTeSR™ Plus medium at 37° C., in 5% CO2/5% O2 atmosphere following the medium manufacturer's protocol. […]
Induction of cortical NPC and cortical neurons iPSCs were differentiated into cortical forebrain committed neural precursor cells (NPCs) by dual SMAD inhibition by passaging iPSCs over to poly-L-ornithine (PO)/laminin coated dishes. […] After induction for 3 weeks the cells were analyzed by ICH for the presence of neuronal markers PAX6, and TUBB3, confirmation of disease-specific enzymatic deficiencies and lysosomal storage phenotype (increased size of LAMP2+ puncta by ICH). […]

[4] = 10 μM bath application, P14-20, Hgsnat^P311L (P304L) slices

## AVP6: N-terminally acetylated Semax, a nootropic peptide having the amino acid sequence of MEHFPGP (SEQ ID NO:1) (Ac-MEHFPGP)
[1]
  effect of N-terminal acetylation on activity and stability of the peptide: increase the activity and stability of the peptide
[2]; [4]
  evoked AMPA current deficits: partially recovered deficits in AMPA currents; also recorded: not in AVP6-treated brain slices
  evoked NMDA current deficits: not in AVP6-treated brain slices
[2]; 10 μM, IPI 100-200 ms Hgsnat^Geo, 100-300 ms Hgsnat^P311L
  paired pulse (PPF/PPR) deficits at lower inter-pulse intervals: significantly recovered PPF deficits; also recorded: partially rescued deficits in the paired pulse stimulation; also recorded: is restored by treatment with AVP6
[2]; 10 μM, IPI 400 and 500 ms
  paired pulse (PPF) deficits at higher inter-pulse intervals: not at higher (400 and 500 ms) IPI
[2]; 50 μM
  recording lost (suggesting neurotoxicity): 5 of 11
[2]; 50 μM, Hgsnat^P304L slices
  PPF deficits at 100, 200, 300 and 400 ms IPI: PPF deficits were rescued
[3]
  levels of BDNF+, VGLUT1+ and PSD-95+ puncta: significantly increased
  levels of VGLUT1+, PSD-95+, SYN1+ and BDNF+ puncta: rescues reduced levels of synaptic markers; also recorded: significantly increased
